This passage reports inhibition and melting point results from US8349827B2, “Substituted dipyrido-pyrimido-diazepine and benzo-pyrido-pyrimido compounds” (ArQule, Inc., priority 2009, dated 2013).

Data set [1] has as its system DLD-1. Put plainly: MTS assay, DLD-1 cells. The format is cell-based. As to conditions: Homo sapiens, 72 hours. In outline: (§1)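 First, seed 3000 cells per well in low-serum (1% FBS) DMEM and culture 18 h. Next, add compounds prepared at 300× in DMSO and diluted 1:40 in DMEM; incubate 72 h. Finally, add MTS/PMS for 4 h and measure absorbance at 492 nm.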
For orientation: Formazan colour is commonly taken as a measure of viable cells.

The test system of data set [2] is KATO III. As to the kind of experiment: MTS assay, KATO III cells. Particulars: Homo sapiens, 72 hours. The format is cell-based. A digest of the protocol:
as §1

For data set [3], the system named is MDA-MB-231. As to the kind of experiment: MTS assay, MDA-MB-231 cells. The format is cell-based. Particulars: Homo sapiens, 72 hours. In outline:
as §1

The test system of data set [4] is NCI-H1299. As to the kind of experiment: MTS assay, NCI-H1299 cells. The data set is classed as cell-based. As to conditions: Homo sapiens, 72 hours. In outline:
as §1

For data set [5], the system named is PACA-2. As to the kind of experiment: MTS assay, PACA-2 cells. The format is cell-based. Particulars: 72 hours. A digest of the protocol:
as §1

Data set [6] relates to PC-3. As to the kind of experiment: MTS assay, PC-3 cells. The data set is classed as cell-based. As to conditions: Homo sapiens, 72 hours. In outline: as §1
For data set [7], the target named is ABL T315I (Homo sapiens, UniProt P00519, T315I). As to the kind of experiment: ABL Kinase Activity Assay (Elisa), ABL T315I. As to conditions: ATP 100 μM, read-out: Abl(T315I) Enzymetic assay (Elisa) % inhibition. The format is biochemical. In outline: (§2)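 Recombinant ABL or ABL T315I (0.089 nM final) preincubated 20 min with compound, then reacted 1 h at room temperature with 100 μM ATP and 128 nM biotinylated AblTide in Tris pH 7.0/MgCl2 buffer. Phosphopeptide captured on streptavidin and detected by anti-phosphotyrosine ELISA with alkaline phosphatase secondary and Attophos fluorescence.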

Data set [8] has as its target ABL (Homo sapiens, UniProt P00519). As to the kind of experiment: ABL Kinase Activity Assay (Elisa), ABL. The data set is classed as biochemical. Particulars: ATP 100 μM, read-out: Abl Enzymetic assay (Elisa) % inhibition. In outline:
as §2

SMILES strings stand for the structures.

Regarding `Nc1ccc(-c2ncc3c(n2)-c2cccnc2Nc2cnccc2-3)cc1` [Example 53, 4-(9H-dipyrido[2,3-b:4′,3′-f]pyrimido[4,5-d]azepin-2-yl)aniline], the melting point is more than 300 °C. The compound also displayed an inhibition at 10 µM in data set [1] of less than 50%. In addition, in data set [2], the inhibition at 10 µM is less than 50%. The inhibition at 10 µM in data set [3] was less than 50%. This compound had an inhibition at 10 µM in data set [4] of less than 50%. In addition, the inhibition at 10 µM in data set [5] was less than 50%. The inhibition at 10 µM in data set [6] is less than 50%.
Turning to `OCCc1cccc(Nc2ncc3c(n2)-c2cccnc2Nc2cnccc2-3)c1` [Example 56, 2-[3-(9H-dipyrido[2,3-b:4′,3′-f]pyrimido[4,5-d]azepin-2-ylamino)phenyl]ethanol], the melting point is 208 to 211 °C. The inhibition at 10 µM in data set [1] lay in the range of 50 to 79%. In [2], this compound yielded an inhibition at 10 µM of 80 to 100%. The inhibition at 10 µM in data set [3] is less than 50%. Besides, the inhibition at 10 µM in [4] was 50 to 79%. The same compound had an inhibition at 10 µM in data set [5] of 80 to 100%. The inhibition at 10 µM in data set [6] was less than 50%.
Take `Cc1cccc2c(CCNc3ncc4c(n3)-c3cccnc3Nc3cnccc3-4)c[nH]c12` [Example 52, N-[2-(7-methyl-1H-indol-3-yl)ethyl]-9H-dipyrido[2,3-b:4′,3′-f]pyrimido[4,5-d]azepin-2-amine]: the melting point fell in the range of 153 to 155 °C. For the same compound, the inhibition at 10 µM in [1] was 50 to 79%. The compound also displayed an inhibition at 10 µM in data set [2] of 80 to 100%. The compound also had an inhibition at 10 µM in data set [3] of less than 50%. The compound also had an inhibition at 10 µM in data set [4] of 50 to 79%. The compound also yielded an inhibition at 10 µM in [5] of less than 50%. The same compound registered an inhibition at 10 µM in data set [6] of less than 50%. Further, the inhibition at 10 µM in data set [7] was in the range of 80 to 100%. Also, in data set [8], the inhibition at 10 µM was in the range of 80 to 100%.
In turn, `Cc1cccc2c(CCNc3ncc4c(n3)-c3cccnc3Nc3ccccc3-4)c[nH]c12` [Example 65, N-[2-(7-methyl-1H-indol-3-yl)ethyl]-9H-pyrido[2,3-b]pyrimido[4,5-d][1]benzazepin-2-amine] had a melting point of 188 to 190 °C. Further, the inhibition at 10 µM in [1] was 80 to 100%. Moreover, the inhibition at 10 µM in [2] lay in the range of 80 to 100%. For the same compound, in data set [3], the inhibition at 10 µM was 50 to 79%. In addition, in [4], the inhibition at 10 µM lay within 80 to 100%. Further, the inhibition at 10 µM in data set [5] lay in the range of 80 to 100%. For the same compound, in data set [6], the inhibition at 10 µM fell in the range of 80 to 100%.
In turn, `c1cnc2c(c1)-c1nc(NCc3ccnc4[nH]ccc34)ncc1-c1ccncc1N2` [Example 55, N-(1H-pyrrolo[2,3-b]pyridin-4-ylmethyl)-9H-dipyrido[2,3-b:4′,3′-f]pyrimido[4,5-d]azepin-2-amine] gave a melting point of 208 to 211 °C. The compound further yielded an inhibition at 10 µM in [1] of 80 to 100%. Further, in data set [2], the inhibition at 10 µM is 80 to 100%. Further, the inhibition at 10 µM in data set [3] is less than 50%. This compound displayed an inhibition at 10 µM in [4] of 50 to 79%. This compound displayed an inhibition at 10 µM in data set [5] of 80 to 100%. Further, the inhibition at 10 µM in data set [6] was in the range of 80 to 100%.
In turn, `c1ccc2c(c1)Nc1ncccc1-c1nc(NCc3ccnc4[nH]ccc34)ncc1-2` [Example 66, N-(1H-pyrrolo[2,3-b]pyridin-4-ylmethyl)-9H-pyrido[2,3-b]pyrimido[4,5-d][1]benzazepin-2-amine] gave a melting point of 285 to 288 °C. Besides, the inhibition at 10 µM in data set [1] lay within 50 to 79%. In data set [2], this compound registered an inhibition at 10 µM of 80 to 100%. For the same compound, the inhibition at 10 µM in [3] lay within 50 to 79%. In addition, the inhibition at 10 µM in [4] fell in the range of 50 to 79%. In data set [5], this compound came in with an inhibition at 10 µM of 80 to 100%. Further, the inhibition at 10 µM in data set [6] was in the range of 50 to 79%.

By inhibition is commonly meant the drop in the measured response relative to a control, in per cent. What is called melting point is the temperature, or range, at which the solid turns liquid.
